# Results from patent publication US20070027109A1 (priority 2002, published 2007).
# pIC50: −log10 of the molar value. “And” between values parts separate entries of the source, which are not always exact repeats. Equal values may be shown once. Read-outs that look alike come from different tables or passages of the source.
# Experiments:
# HIV-1 RoJo = experiment: PBMC assay, HIV-1 RoJo replication (RT activity); type: cell-based; conditions: for IC50 (50% inhibition of virus replication): 6 days; for anti-viral activity against HIV-1 RoJo virus: in vitro
# Text: Human peripheral blood mononuclear cells from a minimum of two donors, that have been blasted with PHA and IL-2, were counted, viability determined by Trypan Blue dye exclusion and mixed in equal ratios. Pooled donors were used to minimize the variability observed between individual donors which results from quantitative and qualitative differences in HIV infection and overall response to the PHA and IL-2 of primary lymphocyte populations. […] Fifty microliters of cells were then distributed to the inner 60 wells of a 96 well round bottom microtiter culture plate in a standard format developed by the Infectious Disease Research department of Southern Research Institute. Each plate contains cell control wells (cells only), virus control wells (cells plus virus), and experimental wells (drug plus cells plus virus). Serially diluted compounds were added to the microtiter plate followed by the appropriate pretitered dilution of HIV-1 RoJo. All samples were assayed in triplicate with a replicate plate without virus for the determination of compound toxicity. The final volume per well was 200 μL. The assay was incubated for 6 days in a humidified atmosphere at 37° C., 5% CO2, after which supernatants were collected, for analysis of RT activity and sister plates analyzed for cell viability by MTS dye reduction. Wells were also examined microscopically and any abnormalities noted.
# Reverse transcriptase (RT) activity was measured in cell-free supernatants. Tritiated thymidine triphosphate (NEN) (TTP) was resuspended in distilled H2O at 5 Ci/mL. Poly rA and oligo dT were prepared as a stock solution which was kept at −20° C. The RT reaction buffer was prepared fresh on a daily basis and consists of 125 μL 1.0 M EGTA, 125 μL dH2O, 110 μL 10% SDS, 50 μL 1.0 M Tris (pH 7.4), 50 μL 1.0 M DTT, and 40 μL 1.0 M MgCl2. These three solutions were mixed together in a ratio of two parts TTP, one part poly rA:oligo dT, and one part reaction buffer. Ten microliters of this reaction mixture were placed in a round bottom microtiter plate and 15 μL of virus containing supernatant was added and mixed. The plate was incubated at 37° C. in a water bath with a solid support to prevent submersion of the plate and incubated for 60 minutes. Following reaction, the reaction volume was spotted onto pieces of DE81 paper, washed 5 times for 5 minutes each in a 5% sodium phosphate buffer, two times for one minute each in distilled water, two times for one minute each in 70% ethanol, and then dried.
# The IC50 and TC50 values were calculated by linear regression. The TI represents the ratio of the TC50/IC50, and is used to determine relative potency between compounds.
# monocyte/macrophages = experiment: MTS staining for cell viability, monocyte/macrophages; type: cell-based, human
# Text: Peripheral blood monocytes were isolated from normal HIV-1 negative donors by plastic adherence following ficoll hypaque purification of the buffy coat, as described above for PBMCs. In many cases the same donor used to produce the PBMC populations was also used to produce monocyte/macrophages, however unlike PBMC population monocyte/macrophage, donors were never pooled. […] The monocytes were released from the plastic by vigorous pipetting with Ca^2+ and Mg^2+ free PBS. […] The monocytes (1×10^5 per 0.2 cm well) were then cultured for six days, allowing maturation of the cells to a macrophagelike phenotype. […] Cultures were washed a final time by media removal 24 hours post infection, fresh compound added and the cultures continued for an additional six days. The assays were preformed using a standardized microtiter plate format, which uses only the inner 60 wells of a 96 well plate for assay purposes. The outer rows contain media and acts an a evaporation barrier. Each plate contains cell control wells (cells only), virus control wells (cells plus virus), and experimental wells (drug plus cells plus virus). HIV p24 antigen content to assess virus replication was measured at assay termination by a commercially available p24 ELISA assay (Coulter) on cell-free supernatants, and compound cytotoxicity by MTS dye reduction. […]
# Subtype A RW/92/016 = experiment: PBMC assay, HIV-1 subtype A; type: cell-based; conditions: Subtype A RW/92/016, PBMC
# [1] = test system: Subtype B 302056 (91US056); experiment: PBMC assay, HIV-1 subtype B; type: cell-based
# Subtype C BR/92/025 = experiment: PBMC assay, HIV-1 subtype C; type: cell-based; conditions: Subtype C BR/92/025, PBMC
# Subtype D UG/92/046 = experiment: PBMC assay, HIV-1 subtype D; type: cell-based; conditions: Subtype D UG/92/046, PBMC
# Subtype F BR/93/020 = experiment: PBMC assay, HIV-1 subtype F; type: cell-based; conditions: Subtype F BR/93/020, PBMC
# Subtype G Jv1083 = experiment: PBMC assay, HIV-1 subtype G; type: cell-based
# Subtype O BCOF-01 = experiment: PBMC assay, HIV-1 subtype O; type: cell-based; conditions: Subtype O BCOF-01, PBMC
# WeJo = experiment: PBMC assay, HIV-1 WeJo; type: cell-based
# SLKA = experiment: PBMC assay, HIV-1 SLKA; type: cell-based
# TEKI = experiment: PBMC assay, HIV-1 TEKI; type: cell-based
# HIV-1 ADA = experiment: Monocyte/macrophage assay, HIV-1 ADA (p24 ELISA); type: cell-based; conditions: monocytes
# Text: (§1) Peripheral blood monocytes were isolated from normal HIV-1 negative donors by plastic adherence following ficoll hypaque purification of the buffy coat, as described above for PBMCs. In many cases the same donor used to produce the PBMC populations was also used to produce monocyte/macrophages, however unlike PBMC population monocyte/macrophage, donors were never pooled. Following a two hour adherence in RPMI 1640 without phenol red supplemented with 10% human pooled AB serum (heat inactivated), 2 mM L-glutamine, 100 U/mL penicillin, 100 μg/mL streptomycin, 10 μg/mL gentamycin, cultures were washed to remove non-adherent cells. […] Adherent cells were assessed for purity by nonspecific esterase staining (a-napthyl butyrate specific esterase, Sigma Chemical Co.), and/or viability by Trypan Blue dye exclusion, counted and resuspended in RPMI 1640 supplemented with 10% Fetal Bovine Serum (heat inactivated), 2 mM L-glutamine, 100 U/mL penicillin, 100 μg/mL streptomycin, 10 μg/mL gentamycin at 1×10^6 monocytes per ml. […] HIV p24 antigen content to assess virus replication was measured at assay termination by a commercially available p24 ELISA assay (Coulter) on cell-free supernatants, and compound cytotoxicity by MTS dye reduction. […]
# (§2) ELISA kits were purchased from Coulter Electronics. […] Control curves were generated in each assay to accurately quantitate the amount of p24 antigen in each sample. […]
# HIV-1 Ba-L = experiment: Monocyte/macrophage assay, HIV-1 Ba-L (p24 ELISA); type: cell-based; conditions: monocytes
# Text: as §1, §2
# SIVmac251 = experiment: PBMC assay, SIVmac251; type: cell-based, SIV
# HIV-2 (CDC 310319) = experiment: PBMC assay, HIV-2; type: cell-based
# MDR769 = conditions: MDR769, PBMC
# Description: (§3) Human immunodeficiency virus type 1 (HIV-1) strains Ba-L, ADA, SIVmac251, HIV-2 (CDC3 10319) and the subtype representative strains (Table 6) were obtained from the NIAID AIDS Research and Reference Reagent Program. The low passage pediatric isolates SLKA, WeJo and TeKi were derived in the laboratories of Southern Research Institute.
# PBMC assays were carried out as described in Example 6.
# Reverse transcriptase (RT) activity was measured in cell-free supernatants as described in Example 6.
# [2] = test system: HIV-1 clinical isolates, SIV and HIV-2; conditions: all viruses of Table 8
# Description: The inhibition of HIV-1 ADA and BaL replication in monocyte/macrophages was also assessed.
# as §3
# Subtype E CMU02 = experiment: PBMC assay, HIV-1 subtype E; type: cell-based
# [3] = IC50 basis, HIV-1 RoJo, PBMCs, Example 6
molecule,measurement,setting,value
Cc1cn([C@H]2C[C@H](N=[N+]=[N-])[C@@H](CO)O2)c(=O)[nH]c1=O [AZT],pIC50,"HIV-1 RoJo; RoJo, PBMC, Example 7, read-out: IC50",8.70
same,CC50,monocyte/macrophages,1000 nM
same,pIC50,Subtype A RW/92/016,9.00
same,pIC50,[1]; read-out: IC50,8.00
same,pIC50,Subtype C BR/92/025; read-out: IC50,8.30
same,pIC50,Subtype D UG/92/046,9.00
same,pIC50,Subtype F BR/93/020; read-out: IC50,8.52
same,pIC50,Subtype G Jv1083; read-out: IC50,8.22
same,pIC50,Subtype O BCOF-01,8.52
same,pIC50,WeJo,8.52
same,pIC50,SLKA,8.70
same,pIC50,TEKI,8.00
same,pIC50,HIV-1 ADA,8.15
same,pIC50,HIV-1 Ba-L,8.40
same,pIC50,SIVmac251; read-out: IC50,8.70
same,pIC50,HIV-2 (CDC 310319); read-out: IC50,9.40
"dextran sulfate, 17-20% sulfur, molecular weight 39,700 [DES 17-20% Sulfation]",IC50 (50% inhibition of virus replication),"HIV-1 RoJo; HIV-1 RoJo, PBMCs, Example 6",0.5 µg/mL and 1.0 µg/mL
same,anti-viral activity against HIV-1 RoJo virus,HIV-1 RoJo,significant anti-viral activity
"sulfated dextran, 9.5% sulfur, molecular weight 30,000 [DES 9.5% Sulfation]",fold less active than DES […] Sulfation,"HIV-1 RoJo; HIV-1 RoJo infected PBMCs, Example 7",37 fold
same,IC50 (50% inhibition of virus replication),"HIV-1 RoJo; HIV-1 RoJo, PBMCs, Example 6",19.4 µg/mL
same,fold less active than DES 17-20% Sulfation,HIV-1 RoJo; [3],39 fold
same,fold less active than DES […] Sulfation,HIV-1 RoJo; [3],12 fold
same,anti-viral activity against HIV-1 RoJo virus,HIV-1 RoJo,significant anti-viral activity
same,IC50,Subtype G Jv1083,> 100 µg/mL
same,IC50,MDR769,13 µg/mL
same,IC50,HIV-2 (CDC 310319),5.1 µg/mL
same,"IC50s, range over the virus panel",[2],5.1 to >100 μg/ml
"sulfated dextran, 12.2% sulfur, molecular weight 36,000 [DES 12.5% Sulfation]",IC50 (50% inhibition of virus replication),"HIV-1 RoJo; HIV-1 RoJo, PBMCs, Example 6",1.6 µg/mL
same,IC50,"HIV-1 RoJo; RoJo, PBMC, Example 7",.7 µg/mL
same,anti-viral activity against HIV-1 RoJo virus,HIV-1 RoJo,significant anti-viral activity
same,IC50,[1],.8 µg/mL
same,IC50,Subtype C BR/92/025,10.3 µg/mL
same,IC50,Subtype E CMU02,.7 µg/mL
same,IC50,Subtype F BR/93/020,.3 µg/mL
same,IC50,Subtype G Jv1083,11.7 µg/mL
same,IC50,MDR769,.7 µg/mL
same,IC50,SIVmac251,.6 µg/mL
